Measurements reported in patent publication US7579373B2, “Targeted bisplatinum polyamines as pro-drugs: selective release of platinum” (Virginia Commonwealth University, priority 2002, dated 2009).
Like-named read-outs stand apart in the source and are kept apart here.

Columns and labels:
[1] = test system: L1210/0; assay: Cellular accumulation in L1210/0 cells; format: cell-based, murine; details: 2 hours of exposure; (±SE), 3 experiments of 2 determinations
Experimental: (§1) Cellular accumulation. The cellular accumulation assays followed published procedures (7). Briefly, cells were resuspended at 10^7/mL in media supplemented with […]. Platinum complexes were added, and samples were incubated at 37° C. in 5% CO2. At 0 and 2 hours aliquots were removed for determination of cell concentrations and for measurement of platinum content. For the latter, aliquots were washed three times in cold phosphate buffered saline, resuspended in 1% Triton-X in water, and sonicated. Platinum content was measured by flameless atomic absorption spectroscopy.
(§2) The cellular accumulation of the blocked Pt compound 2 was also investigated. […] Based solely on charge considerations the BOC-spermidine with a charge of 2+ should have cellular uptake similar to 1,1/t,t (n=6). The enhanced uptake could be explained by some hydrolysis in media or plasma producing small amounts of the protonated 1,1/t,t-spermidine. Considering the potency of polynuclear-polyamine compounds, a small percentage of hydrolysis could have a significant impact on in vivo activity.

[2] = test system: L1210/0; assay: Growth inhibition in L1210/0 cells; format: cell-based, murine; details: 2 hours of exposure; mean (±SE), 3 experiments of 2 determinations
Excerpt: To examine the pro-drug potential in a biological setting, a comparison of the pharmacological properties of the blocked polyamine compounds in L1210 murine leukemia cells was undertaken.

[3] = test system: L1210/DDP; assay: Cellular accumulation in L1210/DDP cells; format: cell-based, murine; details: 2 hours of exposure; (±SE), 3 experiments of 2 determinations
Experimental: as §1, §2

[4] = test system: L1210/DDP; assay: Growth inhibition in L1210/DDP cells; format: cell-based, murine; details: for IC50: 2 hours of exposure, mean (±SE), 3 experiments of 2 determinations; for RF, resistance factor: IC50 L1210/DDP / IC50 L1210/0, 2 hours of exposure
[5] = test system: CH1/CDDP; assay: SRB growth inhibition assay, CH1/CDDP; format: cell-based, human; details: for IC50: 96 h exposure; for RF CH1/CDDP: IC50 resistant/IC50 parent line, 96 h
Experimental: (§3) Cell culture. A2780, A2780/CDDP, CH1, CH1/CDDP, 41M and 41M/CDDP cell lines were used in this study and maintained according to published procedures. (8,9).
(§4) Growth inhibition assay. The Sulforhodamine B (SRB) assay was used to determine growth inhibition potency of platinum drugs (10). The cells were seeded in 96-well microtitre plates at 3-8×10^3 cells/well in 160 μL growth medium and allowed to attach overnight. Platinum agents were then added after serial dilution in quadruplicate wells and exposed to cells for 2 or 96 hours. After the 2 hours drug incubations were complete, plates were washed free of drug with phosphate-buffered saline (PBS) and then refed with normal growth medium for a further 94 hours. Quantitation of cell growth in treated and control wells was then assessed using 0.4% SRB dissolved in 1% acetic acid. IC50 values were determined graphically. […]

[6] = format: physicochemical; details: for Rate constant for the deprotection: first order; for % 1 (percentage of 1 of the overall integration in the chromatogram after incubation): uncorrected
Experimental: Analyses of the products and hydrolysis studies were carried out on an analytical Beckman System Gold Nouveau HPLC instrument with UV detection at 215 nm. A Lichrosphere RP-8 column (5 μm particle size, dimensions 250 mm×4 mm) was used with a solvent gradient from water/methanol 97:3 (0.05 M NaClO4, 1% NaCl) to water/methanol 70:30 (0.05 M NaClO4, 2% NaCl).
Hydrolysis Study. For the hydrolysis experiments 10^−3 mMol complex were dissolved in 1 mL of nanopure water. The pH of the solutions was adjusted by addition of HNO3 (0.1 M, 0.01 M) and NaOH (0.1 M, 0.01 M), respectively. The samples were incubated in a water bath at 37° C. and aliquots of 20 μL were taken from the bulk solution for HPLC analysis. The pH values of the samples were controlled in regular intervals and readjusted if necessary.
The hydrolysis of the protective groups of compounds 2-4 was monitored at 37° C. at various pH values. […] In addition, the chromatogram of 2 contained a peak of a minor impurity (ca 0.4%) which remained unchanged during the timecourse of the reaction. Deprotection of the secondary amino function leads to the appearance of a signal for the unprotected spermidine complex 1 that, as a consequence of the increased cationic charge, is well separated from the signal of the N4 blocked precursor. The area percentage of the integrated signal of the unprotected species is taken as an estimate for the amount of hydrolysis at a given timepoint. To allow for a more accurate quantitative comparison of results, the extinction coefficients for compounds 1-4 were determined at 215 nm (Table 1). The integral values of the blocked compounds have been corrected for the higher absorbance of these species at the observed wavelength compared to the unprotected species 1. Table 2 provides a summary of the amount of hydrolysis for all samples before and after the correction. Rate constants were calculated based on the corrected integral values.
The hydrolysis of the blocking groups of on the N4 position of compounds 5-7 was monitored at 37° C. over a pH range of 6-8.
The amount of 1,1/t,t-spermidine released over time is depicted in FIG. 8. No other products were detected, trifluoroacetate, originating from the hydrolysis reaction, is not retained on the column under the present conditions and coelutes with the other anions (Cl^− from 5, NO3^− from pH adjustment). In order to obtain rate constants for the conversion of 7 to 1,1/t,t-spermidine, the integral values of the chromatograms were corrected for the different absorption of the species at the observed wavelength (ε215: 1, 3.64·10^3; 5, 7.62·10^3; 6, 10.4·10^3; 7, 9.46·10^3 L.Mol^−1 .cm^−1). Concentrations were calculated based on the assumption that the sum of the concentrations of both species at every time point equals the original concentration of 7 at the start of the experiment. First order rate constants were obtained using the program MicroMath Scientist Version 2.01. The results are summarized in Table 3 and compared with values obtained for BOC and Fmoc protected spermidine complexes.

[7] = test system: A2780; assay: SRB growth inhibition assay, A2780; format: cell-based, human; details: 96 h exposure
Experimental: as §3
(§5) Growth inhibition assay. The Sulforhodamine B (SRB) assay was used to determine growth inhibition potency of platinum drugs (10). The cells were seeded in 96-well microtitre plates at 3-8×10^3 cells/well in 160 μL growth medium and allowed to attach overnight. Platinum agents were then added after serial dilution in quadruplicate wells and exposed to cells for 2 or 96 hours. After the 2 hours drug incubations were complete, plates were washed free of drug with phosphate-buffered saline (PBS) and then refed with normal growth medium for a further 94 hours. Quantitation of cell growth in treated and control wells was then assessed using 0.4% SRB dissolved in 1% acetic acid. IC50 values were determined graphically.
(§6) Of special interest is the remarkably low value for 4 (Fmoc) in A2780 cells.

[8] = test system: CH1; assay: SRB growth inhibition assay, CH1; format: cell-based, human; details: 96 h exposure
Experimental: as §3, §5, §6

[9] = test system: A2780/CDDP; assay: SRB growth inhibition assay, A2780/CDDP; format: cell-based, human; details: for IC50: 96 h exposure; for RF A2780/CDDP: IC50 resistant/IC50 parent line, 96 h
Experimental: as §3, §4

[10] = test system: 41M; assay: SRB growth inhibition assay, 41M; format: cell-based, human; details: 96 h exposure
Experimental: as §3, §5, §6

[11] = test system: 41M/CDDP; assay: SRB growth inhibition assay, 41M/CDDP; format: cell-based, human; details: for IC50: 96 h exposure, read-out: 96H IC50 CH1/CDDP; for RF CH1/CDDP: IC50 resistant/IC50 parent line, 96 h
Experimental: as §3, §5, §6

[12] = pH 5, 37° C., time 42 d (2), 30 d (3), 41 d (4)
[13] = pH 6, 37° C., time 42 d (2), 42 d (3), 41 d (4)
[14] = pH 7, 37° C., time 25 d (2), 41 d (4)

| SMILES | Accumulation L1210/0 [1] | IC50 [2] [nM] | Accumulation L1210/DDP [3] | IC50 [4] [µM] | RF, resistance factor [4] | IC50 [5] [µM] | RF CH1/CDDP [5] | % 1, corrected for the different extinction coefficients at 215 nm [6, 12] | % 1, corrected for the different extinction coefficients at 215 nm [6, 13] | Rate constant for the deprotection ([6]; pH 6, 37° C.) | Rate constant for the deprotection ([6]; pH 7, 37° C.) | IC50 [7] [µM] | IC50 [8] [µM] | IC50 [9] [µM] | RF A2780/CDDP [9] | IC50 [10] [µM] | also measured |
| --- | --- | --- | --- | --- | --- | --- | --- | --- | --- | --- | --- | --- | --- | --- | --- | --- | --- |
| N.N.N.N.NCCCCCCN.[Cl][Pt+].[Cl][Pt+] [1,1/tt, [trans-{PtCl(NH3)2}2H2N(CH2)6NH2]^2+, reference compound] | 3.8 (0.70) attamol Pt complex/cell | 3700 | 0.67 (0.21) attamol Pt complex/cell | 16 | 4.3 |  |  |  |  |  |  |  |  |  |  |  |  |
| CC(C)(C)OC(=O)N(CCCN)CCCCN.N.N.N.N.[Cl-].[Cl-].[Cl][Pt+].[Cl][Pt+] [Compound 2, [{trans-Pt(NH3)2Cl}2——N^4-BOC-spermidine-N^1,N^8]Cl2] | 5.0 (0.63) attamol Pt complex/cell | 1250 | 4.8 (0.75) attamol Pt complex/cell | 4.6 | 3.7 | 11 | 1.4 | [15.1] % | [13.8] % | 4.29 (±0.05) · 10^−8 s^−1 | 3.12 (±0.04) · 10^−8 s^−1 | 2.1 | 8 | 19 | 9.0 | 17 | Rate constant for the deprotection ([6]; pH 5, 37° C.): 4.65 (±0.04) · 10^−8 s^−1; Rate constant for the deprotection ([6]; pH 6.6, 37° C.): 3.51 (±0.05) · 10^−8 s^−1; % 1, corrected for the different extinction coefficients at 215 nm [6, 14]: [6.6] % |
| N.N.N.N.NCCCCN(CCCN)C(=O)OCc1ccccc1.[Cl-].[Cl-].[Cl][Pt+].[Cl][Pt+] [Compound 3, [{trans-Pt(NH3)2Cl}2— —N^4-CBz-spermidine-N^1,N^8]Cl2] |  |  |  |  |  | 43 | 1.7 | [0.13] % | [0.12] % |  |  | 24 | 25 | 100 | 4.2 | > 100 | % 1 (percentage of 1 of the overall integration in the chromatogram after incubation) [6, 12]: 0.05%; amount of 1 detected in the samples ([6]; pH 5 and 6, 37° C., over the complete timecourse): below 0.1%; % 1 (percentage of 1 of the overall integration in the chromatogram after incubation) [6, 13]: 0.05% |
| N.N.N.N.NCCCCN(CCCN)C(=O)OCC1c2ccccc2-c2ccccc21.[Cl-].[Cl-].[Cl][Pt+].[Cl][Pt+] [Compound 4, [{trans-Pt(NH3)2Cl}2——N^4-Fmoc-spermidine-N^1,N^8]Cl2] |  |  |  |  |  | 62 | 1.3 | [1.0] % | [3.0] % | 9.74 (±0.88) · 10^−9 s^−1 | 6.12 (±0.09) · 10^−8 s^−1 | 0.84 | 46 | 65 | 77 | > 100 | Rate constant for the deprotection ([6]; pH 5, 37° C.): 3.99 (±0.96) · 10^−9 s^−1; % 1 (percentage of 1 of the overall integration in the chromatogram after incubation) [6, 12]: 0.14%; hydrolyzed species observed (HPLC profile) ([6]; pH 5 and 6, 37° C.): only minor amounts; % 1 (percentage of 1 of the overall integration in the chromatogram after incubation) [6, 13]: 0.45%; % 1, corrected for the different extinction coefficients at 215 nm [6, 14]: [19.6] %; % 1 (percentage of 1 of the overall integration in the chromatogram after incubation) [6, 14]: 3.4%; free spermidine complex released (HPLC profile) ([6]; pH 7 and 8, 37° C.): considerable amounts; % 1, corrected for the different extinction coefficients at 215 nm ([6]; pH 8, 37° C., time 30 d (4)): [35.2] %; Rate constant for the deprotection ([6]; pH 8, 37° C.): 1.44 (±0.07) · 10^−7 s^−1; % 1 (percentage of 1 of the overall integration in the chromatogram after incubation) ([6]; pH 8, 37° C., time 30 d (4)): 7.3% |
| CC(=O)N(CCCN)CCCCN.N.N.N.N.[Cl-].[Cl-].[Cl][Pt+].[Cl][Pt+] [Compound 5, [{trans-Pt(NH3)2Cl}2-μ-N^4—CH3CO-spermidine-N^1,N^8]Cl2] |  |  |  |  |  | 12.5 | 1.7 |  |  |  |  | 14 | 7.4 | 54 | 3.9 | 17.5 | IC50 [11]: 24 µM; RF CH1/CDDP [11]: 1.4 |
| N.N.N.N.NCCCCN(CCCN)C(=O)C(F)(F)F.[Cl-].[Cl-].[Cl][Pt+].[Cl][Pt+] [Compound 7, [{trans-Pt(NH3)2Cl}2-μ-N^4—CF3CO-spermidine-N^1,N^8]Cl2] |  |  |  |  |  | 5 | 2.1 |  |  | 4.44 (±0.11) · 10^−8 s^−1 | 2.73 (±0.06) · 10^−7 s^−1 | 6.8 | 2.4 | 46 | 6.8 | 3.7 | IC50 [11]: 19 µM; RF CH1/CDDP [11]: 5.1; Rate constant for the deprotection ([6]; pH 8, 37° C.): 1.79 (±0.03) · 10^−6 s^−1 |
| N.N.[Cl][Pt][Cl] [cisplatin, reference compound] | 5.0 (0.89) attamol Pt complex/cell | 1300 | 1.5 (0.76^ attamol Pt complex/cell | 59 | 44 | 1.1 | 3.2 |  |  |  |  | 1.6 | 0.34 | 12 | 7.5 | 2.3 |  |
